Test results published in patent US20210340629A1, “BIOMARKERS FOR CANCER THERAPY” (The Council of the Queensland Institute of Medical Research, priority 2018, published 2021).

How the values were obtained:
normal melanocytes = assay: Cell viability by MTT assay, normal melanocytes; type: cell-based; conditions: 5 μM, 48 hours, FIG. 2
Protocol: UNC0642 was purchased from Sigma Aldrich. The panel of human melanoma cell lines, derived from cutaneous melanomas, is shown in Table 1 and the cells have all been previously described. Cells were maintained in Roswell Park Memorial Institute (RPMI) 1640 supplemented with 10% fetal bovine serum (FBS), 100 U/mL penicillin, and 100 µg/mL streptomycin in a humidified atmosphere of 5% CO2 at 37° C. Normal melanocytes were grown in Clonetics™ MGM™-4 Melanocyte Growth Medium-4 supplemented with CaCl2, phorbol-12-myristate 13-acetate (PMA), recombinant human fibroblast growth factor basic (rhFGF-B), recombinant human insulin (rh-insulin), hydrocortisone, bovine pituitary extract (BPE), FBS and GA-1000 (30 μg/ml Gentamycin and 15 ng/ml Amphotericin) (Lonza).
For proliferation studies, cells (5×10^3) were seeded in 96-place wells and allowed to adhere overnight, and incubated in fresh growth medium in the presence of either the G9a inhibitor UNC0642 (Sigma Aldrich) or the vehicle control DMSO (Sigma Aldrich). Proliferation was evaluated via real-time imaging using IncuCyte Zoom (Essen BioScience) and/or by performing a 3-(4,5-dimethylthiazol-2-yl)-2,5-diphenyltetrazolium bromide ([…]) assay. After monitoring the cells, 20 μL of MTT (5 mg/mL; Sigma-Aldrich) was added. […] The absorbance value (optical density) of each well was measured at 570 nm.

MAP1LC3B = assay: Quantitative real time PCR of MAP1LC3B expression in melanoma cell lines; type: cell-based, human; conditions: 24 hours
Protocol: (§1) Quantitative RT-PCR and ChIP assays were conducted as previously described (Lee et al. (2010) Mol Cell 39, 71-85). Briefly, total RNA was isolated from either the tumor cells or from xenografts using Trizol (Invitrogen) and reverse transcription was performed from 2 μg of total RNA using the Superscript III cDNA synthesis system (Invitrogen). The abundance of mRNA was detected by an ABI VIIA7 system with SYBR Green Master Mix (Life Technologies). Primer pairs were designed to amplify 90-150 bp mRNA specific fragments and were confirmed as unique products by melting curve analysis. The quantity of mRNA was calculated using the ΔΔCt method and normalized to HPRT. All reactions were performed in triplicates.

C092 cell line = assay: Cell viability of C092 with LC3B knock down following G9a inhibitor treatment; type: cell-based, human; conditions: data not shown
Source text: Therefore, the basal levels of important autophagy related proteins were examined in the melanoma cell lines used in this study. It is has been shown that the inhibition of G9a can cause an induction of the autophagy-related gene 5 (ATG5), Beclin-1 (known also as ATG6) and the conversion of microtubule-associated protein 1 light chain 3 beta (MAP1LC3B or LC3B for short) I (17 KDa) to LCB3 II (15 KDa) through proteolytic cleavage and lipidation (de Narvajas et al. (2013) and Li et a. (2015). These changes are considered a hallmark of mammalian autophagy. When cells undergo autophagy, conversion of a fraction of cytoplasmic LC3B Ito autophagic membrane form LC3B II can be detected by western blot or by immunofluorescence. This conversion correlates with autophagic activity (Kabeya et al (2000) Embo J 19, 5720-5728), therefore the levels of LC3B II can be considered a reliable marker of autophagy. […] To assess whether lowering LC3B levels in the C092 non-responsive cell line would allow increased sensitivity to the G9a inhibitor treatment, cell viability of C092 following G9a inhibitor treatment was assessed.

H3K9me2 = assay: Immunoblotting analysis of global H3K9me2; type: cell-based, human; conditions: D05 and C008 cell lines, as early as 8 hours and persisted to 24 hours, FIG. 3B
Protocol: For immunoblotting, protein whole cell lysates were prepared using RIPA lysis buffer containing 20 mM Tris, pH 8.0, 150 mM NaCl, 10% glycerol, 1% Nonidet P-40 containing protease inhibitor cocktail (Roche). Nuclear extracts were obtained using a standard high salt extraction buffer (20 mM HEPES (pH 7.9), 0.32 M NaCl, 1 mM EDTA, and 1 mM EGTA) supplemented with 1mM DU and protease inhibitor cocktail. Protein assays were performed according to the Bradford method using a protein assay kit (BioRad). […] of denatured proteins were separated using 10% sodium dodecyl sulfate-polyacrylamide gel electrophoresis (SDS-PAGE) and transferred to Polyvinylidene difluoride (PVDF) membranes. The membranes were blocked for 1 hour in 5% skim milk in Tris-buffered saline with Tween 20 (TBST; 10 mM Tris-HCl, 150 mM NaCl, 0.1% Tween 20). Immunoblotting was performed with primary anti G9a (#3306, Cell Signaling), H3K9me2 (ab 1220, Abcam), H3 (ab1791, Abcam) or Tubulin (ab6046, Abcam) and detected with either HRP-conjugated anti-rabbit (#7074, Cell Signaling Technology) or HRP-conjugated anti-mouse (#7076, Cell Signaling Technology). After applying ECL detection reagents (GE Healthcare), protein bands were visualized using X-ray film (Fujifilm).

PARP = PARP cleavage as a measure of apoptosis; type: cell-based, human; conditions: any cell line treated, data not shown
Source text: Having established that G9a inhibition is effective in inducing death of melanoma cells in vitro, the molecular basis for this effect was then investigated. First, cells treated with UNC0642 were examined for its effect on the cleavage of PARP as a measure of apoptosis.

MAP1LC3B promoter = assay: Chromatin immunoprecipitation (ChIP) on the MAP1LC3B promoter; type: cell-based, human; conditions: D05 cells, 5 μM, 24 h, FIG. 9
Protocol: In order to ascertain whether the inhibition of G9a directly impacts MAP1LC3B expression, chromatin immunoprecipitation (ChIP) was performed on the MAP1LC3B promoter. Changes in histone H3K9 dimethylation (H3K9me2) and acetylation (H3K9Ac), as well as the recruitment of RNA Pol II, were compared between vehicle or UNC0642 treated cells (FIG. 9). Consistent with the increase in gene expression observed in FIG. 8, there was a greater than 4-fold reduction in H3K9me2 concomitant with an increase in RNA Pol II recruitment at the MAP1LC3B promoter following UNC0642 treatment.
as §1

[1] = system: D05 and C092 melanoma cell lines; assay: Cell cycle analysis (flow cytometric analysis); type: cell-based, human; conditions: data not shown

In the case of `COc1cc2c(NC3CCN(C(C)C)CC3)nc(N3CCC(F)(F)CC3)nc2cc1OCCCN1CCCC1` [UNC0642], the “survival of the normal melanocyte cell culture” value (normal melanocytes) is reported as “unaffected”, the “induction of MAP1LC3B expression” value (MAP1LC3B; less sensitive cells (C006 and C092), no statistically significant difference to vehicle, FIG. 8) is reported as “minimal” and the “MAP1LC3B expression, induction compared to vehicle control” value (MAP1LC3B; very sensitive lines (D05 and C008), P<0.05, FIG. 8) is reported as about 2 fold. The “cell viability following G9a inhibitor treatment” value (C092 cell line) was “significantly reduced”, the “global H3K9me2” value (H3K9me2) was “reduction” and the PARP cleavage (PARP) was “No observable PARP cleavage”. For the same compound, the “RNA Pol II recruitment at the MAP1LC3B promoter” value (MAP1LC3B promoter) was “increase”, the “reduction in H3K9me2 at the MAP1LC3B promoter” value (MAP1LC3B promoter) was “greater than 4 fold” and the “increase in preG1 population” value ([1]; C092 (less G9a inhibitor responsive) cell line) was “absent”. For the same compound, the cell cycle status ([1]; D05 and C092, flow cytometric analysis) was “neither D05 nor C092 showed any changes in cell cycle status”, the “increase in cells in preG1 phase” value ([1]; G9a inhibitor responsive cells (D05)) was “greater than 4 fold” and the “cells in both G1 and G2/M phases” value [1] was “reduction”.
